Experimental data from PubChem BioAssay (NCI).
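Compound exposure: 48 hours, 5 concentrations, 96-well plates. The concentration for 50% growth inhibition is given as GI50. The concentration for full growth arrest is given as TGI.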

Key:
Experiment in all cases: DTP human tumour cell line panel, 48 h
KM12 colon = system: KM12 colon
786-0 renal = system: 786-0 renal
SNB-75 CNS = system: SNB-75 CNS
MOLT-4 leukemia = system: MOLT-4 leukemia
NCI-H522 lung = system: NCI-H522 lung
NCI-H226 lung = system: NCI-H226 lung
U251 CNS = system: U251 CNS
PC-3 prostate = system: PC-3 prostate
HS 578T breast = system: HS 578T breast
BT-549 breast = system: BT-549 breast

Compound	TGI (KM12 colon)	TGI (786-0 renal)	TGI (SNB-75 CNS)	TGI (MOLT-4 leukemia)	TGI (NCI-H522 lung)	TGI (NCI-H226 lung)	TGI (U251 CNS)	GI50 (KM12 colon)	GI50 (PC-3 prostate)	TGI (PC-3 prostate)	GI50 (786-0 renal)	GI50 (MOLT-4 leukemia)	GI50 (NCI-H522 lung)	GI50 (NCI-H226 lung)	GI50 (HS 578T breast)	TGI (HS 578T breast)	GI50 (BT-549 breast)	TGI (BT-549 breast)	GI50 (U251 CNS)	GI50 (SNB-75 CNS)
Nc1cc(=O)n(-c2ccccc2)c(=S)n1-c1ccccc1	> 100 µM	> 100 µM	> 100 µM	> 100 µM	> 100 µM	> 100 µM	> 100 µM													
N#C[Se]CCCNS(=O)(=O)C1CC2C=CC1C2 (configuration not stated)	6.43 µM	2.33 µM		22.6 µM	4.2 µM	0.674 µM	3.36 µM	1.4 µM	0.704 µM	3.83 µM	0.997 µM	0.409 µM	1.78 µM	0.267 µM	0.409 µM	1.87 µM	0.192 µM	0.388 µM	1.08 µM	
c1ccc2c(c1)N=C(c1cccc3ccccc13)CC(c1ccc3c(c1)OCO3)S2 (configuration not stated)	> 100 µM	> 100 µM	> 100 µM	> 100 µM	> 100 µM	> 100 µM	> 100 µM													
Cc1cc(C)nc(NS(=O)(=O)c2ccc(Nc3c4ccc(Cl)cc4nc4c(C(=O)NCCN(C)C)cccc34)cc2)n1	> 100 µM	> 100 µM	> 100 µM	> 100 µM	> 100 µM	> 100 µM	> 100 µM													
COC(=O)C(Cc1nc2ccccc2nc1C)/C(=N\NC(N)=O)C(=O)Nc1cccc([N+](=O)[O-])c1 (configuration not stated)	> 100 µM	> 100 µM	> 100 µM	> 100 µM	27.3 µM	> 100 µM	> 100 µM													
CCNC(=O)O/N=C1\CCC2[C@@H]3CC=C4C[C@@H](OC5CCCCO5)CC[C@]4(C)C3CC[C@]12C (some centres not stated)	17 µM	6.48 µM		3.87 µM			4.29 µM													
COc1ccccc1NC(=O)c1nc2ccc([N+](=O)[O-])cc2nc1C	> 100 µM	> 100 µM	> 100 µM	> 100 µM	> 100 µM	> 100 µM	> 100 µM													
Cc1ccccc1-n1c2nc(=O)n(C)c(=O)c-2nc2ccccc21	33.5 µM	58 µM	39.9 µM	39.7 µM	29.4 µM	45 µM	33.2 µM													
O=C(/C(=C\c1ccc(Cl)cc1)c1ccccc1)c1ccccc1	74.3 µM	> 100 µM	> 100 µM	> 100 µM	> 100 µM	> 100 µM	> 100 µM													
CN1CCN(C)C12C=CC=CC21CC1	> 100 µM	> 100 µM	> 100 µM	> 100 µM	> 100 µM	> 100 µM	> 100 µM													
O=C(COC(=O)c1cccc2c(=O)c3ccccc3[nH]c12)Nc1ccc(C(=O)O)cc1	> 100 µM	> 100 µM	> 100 µM	> 100 µM	> 100 µM	> 10 µM	> 100 µM													
Ic1cc2c(cc1C1SCCCS1)OCO2	> 100 µM	> 100 µM	> 100 µM	> 100 µM	> 100 µM	> 100 µM	> 100 µM													
CC1(C)[C@@H](OC(=O)CCC(=O)O)CC[C@]2(C)[C@H]3C(=O)C=C4[C@@H]5C[C@@](C)(C(=O)O)CC[C@]5(C)CC[C@@]4(C)[C@]3(C)CC[C@@H]12	84.1 µM	104 µM	83.5 µM		80.7 µM		77.4 µM	54.9 µM	56 µM	127 µM	58.8 µM		51.1 µM		49.6 µM	253 µM	51.1 µM	83.3 µM	53.2 µM	55 µM
NCCNCc1c2ccccc2c(CNCCN)c2ccccc12	62.6 µM	53.4 µM		30.9 µM	21.2 µM		97.7 µM													
COC1=CC(c2ccc[nH]2)=N/C1=C\c1[nH]c(C)c(C(=O)CCCCC(=O)Oc2ccc3c(c2)CCC2C3CC[C@]3(C)[C@@H](O)CC[C@@H]23)c1C (some centres not stated)	> 100 µM	> 100 µM	> 100 µM	> 100 µM		> 100 µM	> 100 µM	6.66 µM			5.64 µM	5.02 µM		8.88 µM			4.39 µM	> 100 µM	7.79 µM	12.7 µM
CC(=O)NC1C(OCc2ccccc2)OC(COC(=O)CCCCCCCCCCNc2ccc([N+](=O)[O-])c3[nH]c4ccccc4c(=O)c23)C(O)C1OC(C)C(=O)NC(C)C(=O)NC(CCC(N)=O)C(=O)OCc1ccccc1 (configuration not stated)	> 100 µM	> 100 µM	> 100 µM	> 100 µM	> 100 µM	> 100 µM	> 100 µM													
Cc1cc(C(C)(C)C)cc(CNC2CCCCC2)c1O	46.3 µM	30 µM	26 µM	92.4 µM	25.2 µM		29.9 µM			31 µM						48.7 µM		30 µM		
NCC1OC(OC2C(CO)OC(OC3C(O)C(N)CC(N)C3OC3OC(CO)C(O)CC3N)C2O)C(N)C(O)C1OC1OC(CO)C(O)C(O)C1O (configuration not stated)		> 50 µg/mL	> 50 µg/mL	> 50 µg/mL		> 50 µg/mL	> 50 µg/mL		> 50 µg/mL	> 50 µg/mL	> 50 µg/mL	> 50 µg/mL		> 50 µg/mL	> 50 µg/mL	> 50 µg/mL	> 50 µg/mL	> 50 µg/mL	> 50 µg/mL	> 50 µg/mL
CCN1Cc2nc3sc(C)c(C)c3c(=O)n2C=C1C	14.4 µM	66.4 µM	> 100 µM	8.7 µM		21.9 µM	> 100 µM	2.8 µM	4.07 µM	> 100 µM	16.1 µM	2.46 µM		8.17 µM	1.66 µM	6.92 µM	7.36 µM	92.1 µM	4.23 µM	10.2 µM
CC1=CC(N2C(=O)C(C)=CC2O)NC1=O (configuration not stated)	> 100 µM	> 100 µM	> 100 µM		> 100 µM	> 100 µM	> 100 µM													
COc1cc([N+](=O)[O-])c(OC)cc1-c1nc2sc(Cl)cn2c1/C=N/NC1=NCCN1	2.49 µM	1.13 µM			> 29.7 µM		3.02 µM	0.833 µM	1.71 µM	3.16 µM	0.487 µM		2.93 µM		2.22 µM	4.94 µM	2.69 µM	5.95 µM	1.65 µM	
